The nature of data set [1]: Octanol-water distribution coefficient (logD pH 7.4) of the labeled tracer. In kind it is physicochemical. Conditions: n-octanol/PBS pH 7.4, room temperature. The procedure, abridged:
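About 1 MBq tracer partitioned in 1:1 PBS pH 7.4/n-octanol, mixed 3 min at room temperature, centrifuged 15000 g for 5 min. Both layers counted by gamma counter; at least six repeats.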

For another data set, the target named is HSA (Homo sapiens, UniProt P02768). Briefly: HSA binding by RIAC method (gel filtration, apparent molecular weight). In kind it is in vitro ADME. Conditions: HSA binding as apparent molecular weight, 700 μM HSA in PBS mobile phase. As for the experimental part: A gel filtration column Superdex 75 Increase 10/300 GL (GE Healthcare, Uppsala, Sweden) was beforehand calibrated following the producer's recommendations with a commercially available gel filtration calibration kit (GE Healthcare, Buckinghamshire, UK) comprising conalbumin (MW: 75 kDa), ovalbumin (44 kDa), carbonic anhydrase (29 kDa), ribonuclease A (13.7 kDa) and aprotinin (6.5 kDa) as reference proteins of known molecular weight. AMSEC experiments were conducted using a constant flow rate of 0.8 mL/min at rt. A solution of HSA in PBS at physiological concentration (700 μM) was used as the mobile phase. SST2 ligands were labelled as described with molar activities of 10-20 GBq/μmol. Probes of 1.0 MBq of the radioligand were injected directly from the labelling solution. HSA binding was expressed as an apparent molecular weight MW calculated from the retention time of the radioligand using the determined calibration curve.
Chain of HSA (P02768 25-609): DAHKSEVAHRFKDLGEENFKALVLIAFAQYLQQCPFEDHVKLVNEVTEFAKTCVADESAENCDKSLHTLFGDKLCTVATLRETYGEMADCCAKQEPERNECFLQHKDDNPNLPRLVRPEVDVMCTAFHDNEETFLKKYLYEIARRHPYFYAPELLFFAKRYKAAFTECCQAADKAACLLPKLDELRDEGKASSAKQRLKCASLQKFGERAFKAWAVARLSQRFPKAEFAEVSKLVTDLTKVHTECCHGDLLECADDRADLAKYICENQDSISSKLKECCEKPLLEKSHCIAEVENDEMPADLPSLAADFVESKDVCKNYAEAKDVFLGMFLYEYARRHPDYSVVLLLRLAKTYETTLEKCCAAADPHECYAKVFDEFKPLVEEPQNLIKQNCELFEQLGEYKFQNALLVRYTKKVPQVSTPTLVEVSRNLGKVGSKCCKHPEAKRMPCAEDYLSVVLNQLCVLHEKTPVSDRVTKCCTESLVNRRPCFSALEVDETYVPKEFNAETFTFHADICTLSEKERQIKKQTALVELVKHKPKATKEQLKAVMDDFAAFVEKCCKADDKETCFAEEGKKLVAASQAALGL
For evaluation, experimentally determined retention times tR are first converted into elution volumes Ve by multiplying with the flow rate and thereafter converted into partition coefficients Kav following the equation
where V0 is the column void volume (8.027 mL) and Vc is the geometric column volume (24 mL). Using the equation given by the trend line plot of the column calibration
the apparent molecular weight MW is calculated as […]

As for `C[C@@H](O)[C@H](NC(=O)C1CSSCC(NC(=O)C(Cc2ccccc2)NC(=O)CNC(=O)CNC(=O)CNC(=O)C(CC(=O)O)NC(=O)[C@@H](CC(=O)O)NC(=O)C(CCCNC(N)=O)NC(=O)[C@@H](CNC(=O)C[N+](C)(C)Cc2ccc([Si](F)(C(C)(C)C)C(C)(C)C)cc2)NC(=O)CN2CCN(CC(=O)O)CCN(CC(=O)O)CCN(CC(=O)O)CC2)C(=O)N[C@@H](Cc2ccc(O)cc2)C(=O)NC(Cc2c[nH]c3ccccc23)C(=O)N[C@@H](CCCCN)C(=O)N[C@@H]([C@@H](C)O)C(=O)N1)C(=O)O` (stereo partly drawn) [[Ga]46], in data set [1], the “LogDpH=7.4” value was −2.22 ± 0.03. For the same molecule, at HSA, the HSA was 6.81 kDa.
For `C[C@@H](O)[C@H](NC(=O)C1CSSCC(NC(=O)C(Cc2ccccc2)NC(=O)CNC(=O)CNC(=O)CNC(=O)C(CC(=O)O)NC(=O)[C@@H](CC(=O)O)NC(=O)C(CCC(=O)O)NC(=O)[C@@H](CNC(=O)C[N+](C)(C)Cc2ccc([Si](F)(C(C)(C)C)C(C)(C)C)cc2)NC(=O)CN2CCN(CC(=O)O)CCN(CC(=O)O)CCN(CC(=O)O)CC2)C(=O)N[C@@H](Cc2ccc(O)cc2)C(=O)NC(Cc2c[nH]c3ccccc23)C(=O)N[C@@H](CCCCN)C(=O)N[C@@H]([C@@H](C)O)C(=O)N1)C(=O)O` (stereo partly drawn) [[Ga]47], in that order: −2.30 ± 0.02 and 7.66 kDa.
The like results for `C[C@@H](O)[C@H](NC(=O)C1CSSCC(NC(=O)C(Cc2ccccc2)NC(=O)[C@@H](CC(N)=O)NC(=O)C(CC(N)=O)NC(=O)[C@@H](CC(=O)O)NC(=O)C(CC(=O)O)NC(=O)[C@@H](CNC(=O)CN2CCN(CC(=O)O)CCN(CC(=O)O)CCN(CC(=O)O)CC2)NC(=O)C[N+](C)(C)Cc2ccc([Si](F)(C(C)(C)C)C(C)(C)C)cc2)C(=O)N[C@@H](Cc2ccc(O)cc2)C(=O)NC(Cc2c[nH]c3ccccc23)C(=O)N[C@@H](CCCCN)C(=O)N[C@@H]([C@@H](C)O)C(=O)N1)C(=O)O` (stereo partly drawn) [[Ga]48] were, in that order, −2.10 ± 0.05 and 8.11 kDa.
The like results for `C[C@@H](O)[C@H](NC(=O)C1CSSCC(NC(=O)C(Cc2ccccc2)NC(=O)[C@@H](CC(N)=O)NC(=O)C(CC(N)=O)NC(=O)CNC(=O)C(CC(=O)O)NC(=O)[C@@H](CC(=O)O)NC(=O)C(CNC(=O)CN2CCN(CC(=O)O)CCN(CC(=O)O)CCN(CC(=O)O)CC2)NC(=O)C[N+](C)(C)Cc2ccc([Si](F)(C(C)(C)C)C(C)(C)C)cc2)C(=O)N[C@@H](Cc2ccc(O)cc2)C(=O)NC(Cc2c[nH]c3ccccc23)C(=O)N[C@@H](CCCCN)C(=O)N[C@@H]([C@@H](C)O)C(=O)N1)C(=O)O` (stereo partly drawn) [[Ga]49] were, in that order, −2.16 ± 0.03 and 7.26 kDa.
As to `C[C@@H](O)[C@H](NC(=O)C1CSSCC(NC(=O)C(Cc2ccccc2)NC(=O)CNC(=O)CNC(=O)CNC(=O)C(CC(=O)O)NC(=O)[C@@H](CC(=O)O)NC(=O)C(CNC(=O)CN2CCN(CC(=O)O)CCN(CC(=O)O)CCN(CC(=O)O)CC2)NC(=O)C[N+](C)(C)Cc2ccc([Si](F)(C(C)(C)C)C(C)(C)C)cc2)C(=O)N[C@@H](Cc2ccc(O)cc2)C(=O)NC(Cc2c[nH]c3ccccc23)C(=O)N[C@@H](CCCCN)C(=O)N[C@@H]([C@@H](C)O)C(=O)N1)C(=O)O` (stereo partly drawn) [[Ga]50], the “LogDpH=7.4” value in data set [1] was −2.00 ± 0.12. For the same molecule, on HSA, the HSA was 8.18 kDa.
For `C[C@@H](O)[C@H](NC(=O)C1CSSCC(NC(=O)C(Cc2ccccc2)NC(=O)CNC(=O)CNC(=O)CNC(=O)C(CC(=O)O)NC(=O)[C@@H](CC(=O)O)NC(=O)C(CNC(=O)CN2CCN(CC(=O)O)CCN(CC(=O)O)CCN(CC(=O)O)CC2)NC(=O)[C@@H](CN)NC(=O)C[N+](C)(C)Cc2ccc([Si](F)(C(C)(C)C)C(C)(C)C)cc2)C(=O)N[C@@H](Cc2ccc(O)cc2)C(=O)NC(Cc2c[nH]c3ccccc23)C(=O)N[C@@H](CCCCN)C(=O)N[C@@H]([C@@H](C)O)C(=O)N1)C(=O)O` (stereo partly drawn) [[Ga]51], in that order: −1.97 ± 0.01 and 8.71 kDa.

Source of the values: US20240317780A1, “RADIOPHARMACEUTICAL SOMATOSTATIN RECEPTOR LIGANDS AND PRECURSORS THEREOF” (Technische Universität München, priority 2021, published 2024).
